Test results published in patent US20120295923A1, “Aminocyclohexanes and Aminotetrahydropyrans and Related Compounds As Gamma-Secretase Modulators” (PFIZER INC., priority 2010, published 2012).
pIC50: −log10 of the molar value. Counter-ions that a name gives are not always drawn.

What follows are compounds tested on γ-secretase; production of amyloid beta protein Aβ(1-42) (assay: Cell-Based γ-Secretase Assay with ELISA Readout). Details: human WT-APP overexpressing CHO cells; footnote 8: single determination; read-out: Aβ 42B IC50 (nM) (Geometric Mean of 2-8 Determinations).
Outline: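 Human WT-APP overexpressing CHO cells given compound as an eleven-point half-log series (1% final DMSO) for about 24 h at 37° C. Secreted Aβ(1-42) in conditioned media captured by an Aβ(1-42)-specific antibody and detected with Eu-labeled 6e10 (DELFIA TRF). IC50 by nonlinear regression against max/min inhibition controls.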
With `Cc1cc(Cl)ccc1[C@@H]1OC(CC(=O)O)CC[C@H]1N(CC1CCCC1)CC1CCCC1` (stereo in doubt) [Example 24, [(2R,5R,6S)-5-[bis(cyclopentyl-methyl)amino]-6-(4-chloro-2-methylphenyl)tetrahydro-2H-pyran-2-yl]acetic acid] the IC50 was 9190 nM.
Work on `O=C(O)C[C@H]1CC[C@@H](N(CC2CCCC2)CC2CCCC2)[C@H](c2ccc(C(F)(F)F)cc2)O1` [Example 22, {(2R,5R,6S)-5-[bis(cyclopentyl-methyl)amino]-6-[4-(trifluoromethyl)phenyl]tetrahydro-2H-pyran-2-yl} acetic acid] yielded an IC50 of 6390 nM.
Work on `O=C(O)C[C@@H]1CC[C@@H](N2C[C@@H]3CC[C@@H](C3)C2)[C@H](c2ccc(C(F)(F)F)cc2)C1` [Example 25, {(1R,3S,4R)-4-[(1R,5S)-3-azabicyclo[3.2.1]oct-3-yl]-3-[4-(trifluoromethyl)phenyl]cyclohexyl} acetic acid] yielded an IC50 of 8840 nM.

Same assay, conditions: human WT-APP overexpressing CHO cells; geometric mean of 2-4 determinations unless otherwise indicated (footnote 10: 6-8; footnote 14: single determination); read-out: Aβ 42B IC50
`O=C(O)C[C@@H]1CC[C@@H](N(CC2CCCC2)CC2CCCC2)[C@H](c2cccc(Cl)c2)O1` [Example 47, [(2S,5R,6S)-5-[bis(cyclopentylmethyl)amino]-6-(3-chlorophenyl)tetrahydro-2H-pyran-2-yl]acetic acid, ammonium salt] showed a pIC50 of 5.74.
Compound `CC(C)C[C@H](C)N(CC1CCCC1)[C@@H]1CC[C@@H](CC(=O)O)C[C@H]1c1ccc(C(F)(F)F)cc1` (single isomer, unassigned) [Example 56] has a pIC50 of 6.26.
Compound `O=C(O)C[C@@H]1CC[C@@H](N(CC2CCCC2)CC2CCCC2)[C@H](c2ccc(Cl)cc2)O1` [Example 55, [(2S,5R,6S)-5-[bis(cyclopentylmethyl)amino]-6-(4-chlorophenyl)tetrahydro-2H-pyran-2-yl]acetic acid] has a pIC50 of 6.05.
